Measurements reported in US20110033387A1, “METHOD OF DETERMINATION OF PDH ACTIVITY AND IMAGING MEDIA FOR USE IN SAID METHOD” (GE HEALTHCARE LIMITED, priority 2007, published 2011).

Legend:
PDH [1] = experiment: PDH activity by 13C-MR detection (13C-bicarbonate to 13C-pyruvate ratio) in STZ Type 1 diabetes model; format: in vivo, male Wistar rats; details: single i.p. injection 50 mg/kg, five days after induction, rat heart, each rat its own control
Description: Initial PDH activity (baseline) was determined in a first group of 6 rats according to Example 3. […] Five days after STZ-diabetes induction, PDH activity was determined again, each rat served as its own experimental control.
(§1) All rats were anaesthetised using isofluorane (2% in oxygen) and kept on a heated mat. Care was taken to maintain body temperature at 37° C. A catheter was introduced into the tail vein, and rats were then placed in a home-built animal handling system. ECG, respiration rate, and body temperature were monitored, and air heating was provided. Anaesthesia was continued by means of isofluorane (1.7%) delivered to a nose cone.
1 cm^3 of the imaging medium as prepared in Example 1 was injected over 10 s via the tail vein catheter in the anaesthetised rat. […]
(§2) The series of cardiac ^13C MR spectra were analysed using the AMARES algorithm as implemented in the jMRUI software package (Naressi et al., Computers in Biology and Medicine, 31(4), 2001, 269-286 and Naressi et al., Magnetic Resonance Materials in Physics, Biology and Medicine, 12(2-3), 2001, 141-152). […]
Maximum pyruvate peak area was calculated for each series of spectra, and was used to calculate maximum bicarbonate/pyruvate ratio. […] Parameters describing the kinetic progression of bicarbonate, namely time to appearance, time to maximum, and decay time to half maximum were also calculated.

[2] = T1 relaxation of 13C1-pyruvate in human full blood; format: physicochemical; details: human full blood at 37° C.
PDH [3] = experiment: PDH flux by cardiac 13C-MR with imaging medium with or without malate, fed and fasted rats; format: in vivo, male Wistar rats; details: 40 μmol hyperpolarised 13C-pyruvate alone, fasted vs fed rats
Description: as §1
A home-built ^1H/^13C butterfly coil was fit over the rat chest, localising signal from the heart. Rats were positioned in a 7 T horizontal bore MR scanner interfaced to a Varian Inova console. Correct positioning was confirmed by the acquisition of an axial proton FLASH image (TE/TR=1.17/2.33 ms, Matrix size=64×64, FOV=60×60 mm, Slice thickness=2.5 mm, Excitation flip angle=15°). […]
as §2
Maximum pyruvate peak area was calculated for each series of spectra, and was used to calculate maximum bicarbonate/pyruvate ratio. […] Parameters describing the kinetic progression of bicarbonate, namely time to appearance, time to maximum, and decay time to half maximum were also calculated. […]

| SMILES | ratio of the 13C-bicarbonate to 13C-pyruvate peak amplitude / PDH activity, before vs after STZ injection (PDH [1]) | T1 relaxation [2] | PDH flux lower in fasted rats compared with fed rats (PDH [3]) [%] |
| --- | --- | --- | --- |
| CN(N=O)C(=O)N[C@H]1C(O)O[C@H](CO)[C@@H](O)[C@@H]1O (mixture of isomers) [STZ, Streptozotocin] | decrease in PDH activity |  |  |
| CC(=O)C(=O)O [^13C1-pyruvate, sodium ^13C1-pyruvate] |  | about 42 s | 55 |
